Among the data in patent US8420657B2 (Novartis AG, priority 2008, dated 2013) are IC50 values, retold here.

pIC50: −log10 of the molar value.

One assay has as its target T1, GST-JAK2(808-1132) (Homo sapiens, UniProt O60674).
T1 construct: GST-JAK2(808-1132); purchased Invitrogen (Carlsbad, USA) #4288
The assay can be described thus: JAK2 kinase assay (Caliper mobility shift, LabChip 3000). It is filed as biochemical. The method in brief: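 Recombinant GST-JAK2(808-1132) kinase domain with FITC-labelled JAK3tide peptide substrate and ATP; 60 min at 30 °C, EDTA stop. Substrate/product ratio read by microfluidic mobility shift; compounds at 8 final concentrations, 10 to 0.003 μM.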

Assay [1] deals with JAK2-dependent nuclear translocation of STAT5-GFP in U-2 OS osteosarcoma cells. The assay can be described thus: STAT5 nuclear translocation assay (Cellomics), rhEpo stimulated U-2 OS STAT5-GFP cells. The following applies: Homo sapiens, U2OS; STAT5 translocation pathway. It is filed as cell-based. The text has this:
The medium-throughput (96-well format) cellular automated fluorescence microscopy Cellomics assay can be routinely used to assess the functional activation of Janus Kinases (JAKs), based on the nuclear translocation of their substrate, Signal Transducer and Activator of Transcription (STAT). Nuclear translocation can be monitored either in HT1080 fibrosarcoma cells stably transfected with STAT1 fused to Green Fluorescence Protein (GFP) or in U-2 OS osteosarcoma cells stably transfected with STAT5 fused to Green Fluorescence Protein (GFP). Stimulation of HT1080 cells with interferon-γ (IFN-γ) results in JAK1/JAK2-dependent nuclear translocation of STAT1-GFP, whereas stimulation of U-2 OS cells with recombinant human erythropoietin (rhEpo) results in JAK2-dependent nuclear translocation of STAT5-GFP, both of which can be quantified using the Cellomics Cyto/NucTrans software package. This assay may be used to provide an assessment of the nuclear-cytoplasmic differential (NCD) of STAT-GFP using Hoechst dye to define the boundaries of the nucleus.
U-2 OS osteosarcoma cells may be obtained from ATCC and can be cultured in standard RPMI medium supplemented with 10% FCS and 2 mM L-glutamine. Cells can be stably transfected with STAT5a-GFP using Lipofectamine following the manufacturers' protocol. 24 hours after transfection the medium can be replaced and selected in 400 μg/ml Geneticin. Subsequently, cells can be stably transfected with EpoR using Lipofectamine following the manufacturers' protocol. 24 hours after transfection the medium can be replaced and cells selected in 100 μg/ml Hygromycin B.
Compounds can be dissolved in DMSO to a final stock concentration of 10 mM and stored as aliquots at 4° C. Compounds may be pre-diluted in 100% DMSO at 10 mM, 3 mM 1 mM, 0.3 mM, 0.1 mM, 0.03 mM, 0.01 mM and 0.003 mM. Subsequently, compounds may be diluted in medium and added in 50 μl to the cells. The final compound concentrations tested may be 10 μM, 3 μM 1 μM, 0.3 μM, 0.1 μM, 0.03 μM, 0.01 μM and 0.003 μM and the final DMSO concentration can be 0.1%.
U-2 OS may be seeded at a cell density of 12,000 cells per well in clear-bottom black 96-well Packard View-Plates™. The following day, medium can be removed and replaced with medium containing either the vehicle (DMSO) or increasing concentrations of test compounds for 30 minutes at 37° C. Cells can then be stimulated for 1 hour by adding 10 μl per well of 50 U/ml rhEpo to obtain 5 U/ml of rhEpo as the final concentration. Following treatments, cells can fixed and processed as described above.
The plates can be read on a Cellomics® ArrayscanII automated fluorescence microscope plate reader equipped with a Mercury-Xenon white light illumination source and a Zeiss Axiovert inverted microscope, using the XF100 dichroic/emission filter cube and matching excitation filters, 10× magnification, and a 0.3 numerical aperture objective. Image acquisition and analysis can be performed using a customized protocol based on the ‘NuclearTranslocation’ Bioapplication. For each well, multiple images (fields) can be acquired until a minimum of 1000 cells are counted using two 2 channels: Channel 1 (Hoechst)=focus+nuclear mask, Channel 2 (GFP)=signal quantification in mask areas as outlined below. Nuclei may be first identified based on the Hoechst staining and a mask generated for each nucleus that then serves as a template to generate a circle (eroded inwards by 1 pixel) and a 3 pixel-wide collar-like ring (off-set outwards by 1 pixel), in which the nuclear and cytoplasmic intensity of GFP, respectively, are quantified in the corresponding channel. High content analysis yields numerous measurements per cell and the GFP intensity differential between the nuclear and the cytoplasmic masks may be chosen as a measure of sub-cellular STAT-GFP relocation. The resulting values may be averaged for all cells in the well to return a single measurement plus standard deviation. […]

Assay [2] concerns JAK1/JAK2-dependent nuclear translocation of STAT1-GFP in HT1080 fibrosarcoma cells. The assay can be described thus: STAT1 nuclear translocation assay (Cellomics), IFN-γ stimulated HT1080 STAT1-GFP cells. The following applies: Homo sapiens, HT-1080, STAT1 translocation pathway. It counts as cell-based. The method, boiled down:
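HT1080 cells stably expressing STAT1-GFP, pre-treated 30 min with compound (10 μM–0.003 μM, 0.1% DMSO), then stimulated 2 h with 100 ng/ml IFN-γ, fixed and Hoechst-stained. Nuclear-cytoplasmic GFP differential imaged over ≥1000 cells/well, normalised to unstimulated and DMSO-stimulated wells for IC50.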

T1 sequence (O60674 808-1132): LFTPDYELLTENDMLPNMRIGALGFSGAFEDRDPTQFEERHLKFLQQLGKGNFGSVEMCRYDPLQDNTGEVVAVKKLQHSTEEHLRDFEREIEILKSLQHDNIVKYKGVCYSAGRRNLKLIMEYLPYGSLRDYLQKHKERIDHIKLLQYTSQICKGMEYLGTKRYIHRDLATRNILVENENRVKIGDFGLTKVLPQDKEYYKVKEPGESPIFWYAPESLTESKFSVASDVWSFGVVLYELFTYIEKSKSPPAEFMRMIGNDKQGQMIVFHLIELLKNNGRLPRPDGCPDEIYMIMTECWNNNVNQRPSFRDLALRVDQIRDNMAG

Turning to `Fc1cc(-n2ccc3cnc(Nc4cnc(N5CCNCC5)c(Cl)c4)nc32)cc(F)c1CN1CCOCC1` [Example 502, (5-Chloro-6-piperazin-1-yl-pyridin-3-yl)-[7-(3,5-difluoro-4-morpholin-4-ylmethyl-phenyl)-7H-pyrrolo[2,3-d]pyrimidin-2-yl]-amine], the pIC50 is at least 8.52 on GST-JAK2(808-1132) and 7.77 in assay [1].
In the same order, the values of `CN1CCN(c2ccc(Nc3ncc4ccn(-c5ccc6c(c5)CC(=O)N6C)c4n3)cn2)CC1` [Example 448, 1-Methyl-5-{2-[6-(4-methyl-piperazin-1-yl)-pyridin-3-ylamino]-pyrrolo[2,3-d]pyrimidin-7-yl}-1,3-dihydro-indol-2-one] are 8.30 and 8.13.
As for `CN1CCN(Cc2ccc(Nc3ncc4ccn(-c5ccc(S(C)(=O)=O)c(F)c5)c4n3)cc2)CC1` [Example 244, [7-(3-Fluoro-4-methanesulfonyl-phenyl)-7H-pyrrolo[2,3-d]pyrimidin-2-yl]-[4-(4-methyl-piperazin-1-ylmethyl)-phenyl]-amine], the pIC50 at GST-JAK2(808-1132) is above 8.52; in assay [2], 6.37.
On to `CS(=O)(=O)c1ccc(-n2ccc3cnc(Nc4ccc(F)c(C(F)(F)F)c4)nc32)cc1` [Example 80, (4-Fluoro-3-trifluoromethyl-phenyl)-[7-(4-methanesulfonyl-phenyl)-7H-pyrrolo[2,3-d]pyrimidin-2-yl]-amine], for which the negative logarithm of the IC50 (pIC50) on GST-JAK2(808-1132) is 6.37; in assay [2], 5.00.
The matching figures for `CC(=O)N1CCN(Cc2ccc(Nc3ncc4ccn(-c5cc(F)c(CN6CCNC(=O)C6)c(F)c5)c4n3)cc2)CC1` [Example 339, 4-(4-{2-[4-(4-Acetyl-piperazin-1-ylmethyl)-phenylamino]-pyrrolo[2 3-d]pyrimidin-7-yl}-2,6-difluoro-benzyl)-piperazin-2-one]: 8.43 and 6.55.
Take `CN1CCN(C(=O)c2ccc(Nc3ncc4ccn(-c5cc(F)c(CN6CCOCC6)c(F)c5)c4n3)cc2)CC1` [Example 2, {4-[7-(3,5-Difluoro-4-morpholin-4-ylmethyl-phenyl)-7H-pyrrolo[2,3-d]pyrimidin-2-ylamino]-phenyl}-(4-methyl-piperazin-1-yl)-methanone]: the pIC50 was 8.49 at GST-JAK2(808-1132) and 6.72 in assay [2].
In the same order, the values of `CN1CCN(Cc2cccc(Nc3ncc4ccn(-c5ccc(S(C)(=O)=O)cc5)c4n3)c2)CC1` [Example 93] are above 8.52 and 6.72.
In the case of `Cc1ccc(Nc2ncc3ccn(-c4ccc(CC(=O)N5CCOCC5)cc4)c3n2)cc1` [Example 141, 1-Morpholin-4-yl-2-[4-(2-p-tolylamino-pyrrolo[2,3-d]pyrimidin-7-yl)-phenyl]-ethanone], the pIC50 at GST-JAK2(808-1132) was above 8.52; in assay [2], 6.89.
Turning to `C[C@@H]1CN(c2ccc(Nc3ncc4ccn(-c5cc(F)c(CN6CCNC(=O)C6)c(F)c5)c4n3)cn2)C[C@H](C)N1` [Example 342, 4-(4-{2-[6-(cis-3,5-Dimethyl-piperazin-1-yl)-pyridin-3-ylamino]-pyrrolo[2,3-d]pyrimidin-7-yl}-2,6-difluoro-benzyl)-piperazin-2-one], the negative-log IC50 (pIC50) on GST-JAK2(808-1132) is at least 8.52; in assay [2] it was 6.32.
Turning to `CC(C)Oc1ccc(Nc2ncc3ccn(-c4ccc(CN5CCOCC5)c(F)c4)c3n2)cc1` [Example 97, [7-(3-Fluoro-4-morpholin-4-ylmethyl-phenyl)-7H-pyrrolo[2,3-d]pyrimidin-2-yl]-(4-isopropoxy-phenyl)-amine], the negative-log IC50 (pIC50) at GST-JAK2(808-1132) is 8.03; in assay [2], 5.84.
`CC(C)Oc1ccc(Nc2ncc3ccn(-c4ccc(C5(C(=O)N6CCN(C)CC6)CC5)cc4)c3n2)cc1` [Example 103, (1-{4-[2-(4-Isopropoxy-phenylamino)-pyrrolo[2,3-d]pyrimidin-7-yl]-phenyl}-cyclopropyl)-(4-methyl-piperazin-1-yl)-methanone]: the negative-log IC50 (pIC50) was above 8.52 at GST-JAK2(808-1132) and 6.66 in assay [2].
In the case of `CN1CCN(c2cc(Nc3ncc4ccn(-c5cc(F)c(C(=O)N6CCOCC6)c(F)c5)c4n3)ccn2)CC1` [Example 243, (2,6-Difluoro-4-{2-[2-(4-methyl-piperazin-1-yl)-pyridin-4-ylamino]-pyrrolo[2,3-d]pyrimidin-7-yl}-phenyl)-morpholin-4-yl-methanone], the pIC50 is above 8.52 on GST-JAK2(808-1132) and 6.65 in assay [2].
The matching figures for `CCN(CC)C(=O)N1CCN(c2ccc(Nc3ncc4ccn(-c5ccc(S(C)(=O)=O)cc5)c4n3)cc2)CC1` [Example 13, 4-{4-[7-(4-Methanesulfonyl-phenyl)-7H-pyrrolo[2,3-d]pyrimidin-2-ylamino]-phenyl}-piperazine-1-carboxylic acid diethylamide]: 8.42 and 7.49.
`O=S1(=O)CCN(Cc2c(F)cc(-n3ccc4cnc(Nc5cccnc5)nc43)cc2F)CC1` [Example 182, {7-[4-(1,1-Dioxido-thiomorpholin-4-ylmethyl)-3,5-difluoro-phenyl]-7H-pyrrolo[2,3-d]pyrimidin-2-yl}-pyridin-3-yl-amine]: the values for the pIC50 (on GST-JAK2(808-1132); in assay [2]) were above 8.52 and 6.90, respectively.
As to `CS(=O)(=O)c1ccc(-n2ccc3cnc(Nc4ccc(CN5CCS(=O)(=O)CC5)cc4)nc32)cc1` [Example 64, [4-(1,1-Dioxido-thiomorpholin-4-ylmethyl)-phenyl]-[7-(4-methanesulfonyl-phenyl)-7H-pyrrolo[2,3-d]pyrimidin-2-yl]-amine], the values for the negative logarithm of the IC50 (pIC50) (at GST-JAK2(808-1132); in assay [2]) were above 8.52 and 7.40, respectively.
In the same order, the values of `Cc1ccc(Nc2ncc3ccn(-c4ccc(CN5CCOCC5)cc4)c3n2)cc1Cl` [Example 119, (3-Chloro-4-methyl-phenyl)-[7-(4-morpholin-4-ylmethyl-phenyl)-7H-pyrrolo[2,3-d]pyrimidin-2-yl]-amine] are 7.06 and 5.76.
The matching figures for `Cc1cc(Nc2ncc3ccn(-c4ccc(C(=O)N5CCOCC5)c(C)c4)c3n2)ccc1F` [Example 91, {4-[2-(4-Fluoro-3-methyl-phenylamino)-pyrrolo[2,3-d]pyrimidin-7-yl]-2-methyl-phenyl}-morpholin-4-yl-methanone]: above 8.52 and 6.36.
For `CC(C)Oc1ccc(Nc2ncc3ccn(-c4cc(F)c(CN5CCOCC5)c(F)c4)c3n2)cc1` [Example 126, [7-(3,5-Difluoro-4-morpholin-4-ylmethyl-phenyl)-7H-pyrrolo[2,3-d]pyrimidin-2-yl]-(4-isopropoxy-phenyl)-amine], the pIC50 at GST-JAK2(808-1132) is 7.96; in assay [2], 5.79.
Turning to `COc1cc(Nc2ncc3ccn(-c4ccc(C(=O)N5CCOCC5)c(F)c4)c3n2)ccc1C` [Example 303, {2-Fluoro-4-[2-(3-methoxy-4-methyl-phenylamino)-pyrrolo[2,3-d]pyrimidin-7-yl]-phenyl}-morpholin-4-yl-methanone], the figures for the negative logarithm of the IC50 (pIC50) (at GST-JAK2(808-1132); in assay [2]) were 8.31 and 6.53, respectively.

In general, pIC50 refers to −log10 of the IC50, conventionally taken in molar units.
